Measured values as given in the NIST ThermoML archive (doi:10.1016/j.jct.2006.09.008).

Assay: molar heat capacity at constant pressure; mn = molality of the nth substance listed, in mol/kg
Conditions: 350 kPa, Liquid

O=[N+]([O-])[O-].O=[N+]([O-])[O-].[Mg+2] [magnesium nitrate] + O
molar heat capacity at constant pressure [J/K/mol]
Conditions	m1 = 0.0228	m1 = 0.0567	m1 = 0.1086	m1 = 0.2145	m1 = 0.3197	m1 = 0.4749	m1 = 0.6211	m1 = 0.811	m1 = 1.014
278.15 K	75.58	75.4	75.14	74.65	74.24	73.72	73.31	72.9	72.59
283.15 K	75.43	75.26	75.04	74.61	74.25	73.79	73.43	73.07	72.79
288.15 K	75.33	75.17	74.98	74.6	74.28	73.86	73.54	73.22	72.97
293.15 K	75.26	75.12	74.94	74.6	74.31	73.94	73.65	73.35	73.12
298.15 K	75.22	75.09	74.92	74.62	74.35	74.01	73.74	73.47	73.26
303.15 K	75.19	75.07	74.92	74.64	74.39	74.07	73.83	73.58	73.38
308.15 K	75.18	75.07	74.92	74.66	74.43	74.13	73.91	73.67	73.48
313.15 K	75.18	75.07	74.94	74.69	74.47	74.19	73.98	73.75	73.58
318.15 K	75.2	75.09	74.96	74.72	74.52	74.25	74.04	73.83	73.66
323.15 K	75.22	75.12	74.99	74.76	74.56	74.3	74.11	73.9	73.74
328.15 K	75.25	75.15	75.03	74.81	74.61	74.36	74.17	73.97	73.82
333.15 K	75.29	75.19	75.07	74.85	74.66	74.42	74.23	74.03	73.89
338.15 K	75.34	75.24	75.12	74.91	74.72	74.48	74.3	74.1	73.95
343.15 K	75.39	75.3	75.18	74.96	74.78	74.54	74.36	74.16	74.02
348.15 K	75.46	75.36	75.24	75.02	74.84	74.6	74.42	74.22	74.08
353.15 K	75.53	75.43	75.31	75.09	74.9	74.66	74.48	74.28	74.14
358.15 K	75.61	75.51	75.38	75.16	74.97	74.73	74.55	74.35	74.2
363.15 K	75.69	75.59	75.46	75.24	75.04	74.8	74.61	74.42	74.27
368.15 K	75.78	75.68	75.55	75.32	75.12	74.87	74.68	74.48	74.33
373.15 K	75.88	75.78	75.64	75.4	75.21	74.95	74.76	74.55	74.4
378.15 K	75.99	75.88	75.74	75.5	75.32	75.05	74.83	74.63	74.47
383.15 K	76.11	76	75.85	75.6	75.42	75.14	74.92	74.71	74.55
388.15 K	76.24	76.12	75.97	75.7	75.52	75.24	75.03	74.79	74.63
393.15 K	76.38	76.25	76.09	75.82	75.63	75.34	75.15	74.89	74.73
